Test results from PubChem BioAssay AID1963964 (Molecular Pharmacology Branch, DTP, NCI, 2024).

System: 997726-040-R-J2-PDC tumor spheroids, viability
Assay: Anticancer human tumor 997726-040-R-J2-PDC patient-derived squamous cell lung carcinoma cell line growth inhibition [PI3K]
Conditions: spheroids with HUVEC and MSC; for viability, T/C: stronger effect = lower value; active = viability on the fitted dose curve at most 10% of control; inactive = the rest
Procedure, shortened: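 Tumor cells were combined with HUVEC and MSCs into spheroids, then dosed with PI3K-inhibitor combinations over half-log ranges capped near clinical Cmax or 10 microM.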
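Note: spheroids exposed to compounds for seven days before readout.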

Cn1nccc1Nc1nccc(-c2ccn(C(CO)c3ccc(Cl)c(F)c3)c(=O)c2)n1 (centres undefined)
inactive: viability, T/C (compound 0.0316 µM) 93.2% [middle of 4 runs] | viability, T/C (compound 0.1 µM) 78.7% [middle of 4 runs] | viability, T/C (compound 0.316 µM) 73.9% [middle of 4 runs] | viability, T/C (compound 1 µM) 61.8% [middle of 4 runs] | viability, T/C (compound 3.16 µM) 61.6% [middle of 4 runs] | viability, T/C (compound 10 µM) 58.1% [middle of 4 runs]
> 10000 nM: IC50 (curve of compound)

CC(C)n1nc(-c2ccc3oc(N)nc3c2)c2c(N)ncnc21 + COc1c(OCCCN2CCOCC2)ccc2c3n(c(=NC(=O)c4cnc(N)nc4)nc12)CCN3
2.97 nM: IC50 (curve of first compound, second compound 0.01 µM)
< 0.316 nM: IC50 (curve of first compound, second compound 0.0316 µM) | IC50 (curve of first compound, second compound 0.1 µM) | IC50 (curve of first compound, second compound 0.316 µM) | IC50 (curve of first compound, second compound 1 µM)
18.2 nM: IC50 (curve of first compound, second compound 0.00316 µM)
active: viability, T/C (second compound 0.1 µM, first compound 0.0316 µM) 9.54% | viability, T/C (second compound 0.1 µM, first compound 0.1 µM) 2.12% | viability, T/C (second compound 0.316 µM, first compound 0.000316 µM) 5.5% | viability, T/C (second compound 0.316 µM, first compound 0.001 µM) 4.4% | viability, T/C (second compound 0.316 µM, first compound 0.00316 µM) 4.05% | viability, T/C (second compound 0.316 µM, first compound 0.01 µM) 2.91% | viability, T/C (second compound 0.316 µM, first compound 0.0316 µM) 1.89% | viability, T/C (second compound 0.316 µM, first compound 0.1 µM) 1.02% | viability, T/C (second compound 1 µM, first compound 0.000316 µM) 1.83% | viability, T/C (second compound 1 µM, first compound 0.001 µM) 1.51% | viability, T/C (second compound 1 µM, first compound 0.00316 µM) 1.18% | viability, T/C (second compound 1 µM, first compound 0.01 µM) 1.56% | viability, T/C (second compound 1 µM, first compound 0.0316 µM) 1.91% | viability, T/C (second compound 1 µM, first compound 0.1 µM) 0.84%
inactive: viability, T/C (second compound 0.00316 µM, first compound 0.000316 µM) 74% | viability, T/C (second compound 0.00316 µM, first compound 0.001 µM) 76.6% | viability, T/C (second compound 0.00316 µM, first compound 0.00316 µM) 70% | viability, T/C (second compound 0.00316 µM, first compound 0.01 µM) 61.1% | viability, T/C (second compound 0.00316 µM, first compound 0.0316 µM) 39.9% | viability, T/C (second compound 0.00316 µM, first compound 0.1 µM) 16.4% | viability, T/C (second compound 0.01 µM, first compound 0.000316 µM) 57.2% | viability, T/C (second compound 0.01 µM, first compound 0.001 µM) 57.9% | viability, T/C (second compound 0.01 µM, first compound 0.00316 µM) 45.5% | viability, T/C (second compound 0.01 µM, first compound 0.01 µM) 42.2% | viability, T/C (second compound 0.01 µM, first compound 0.0316 µM) 33.2% | viability, T/C (second compound 0.01 µM, first compound 0.1 µM) 13.1% | viability, T/C (second compound 0.0316 µM, first compound 0.000316 µM) 32.4% | viability, T/C (second compound 0.0316 µM, first compound 0.001 µM) 35.5% | viability, T/C (second compound 0.0316 µM, first compound 0.00316 µM) 32.5% | viability, T/C (second compound 0.0316 µM, first compound 0.01 µM) 29.6% | viability, T/C (second compound 0.0316 µM, first compound 0.0316 µM) 23.7% | viability, T/C (second compound 0.0316 µM, first compound 0.1 µM) 5.54% | viability, T/C (second compound 0.1 µM, first compound 0.000316 µM) 25.5% | viability, T/C (second compound 0.1 µM, first compound 0.001 µM) 22.1% | viability, T/C (second compound 0.1 µM, first compound 0.00316 µM) 21.3% | viability, T/C (second compound 0.1 µM, first compound 0.01 µM) 16.3%
